Key:
[1] = tested on: C. formosanus workers and soldiers; experiment: Treated wood slices as sole food source; format: in vivo, Coptotermes formosanus; conditions: colonies C and WB combined
Procedure: To assay the effect of 2′-acetonaphthone on termites when added to a sole food source, acute and cumulative toxicities of 2′-acetonaphthone-treated filter paper (Whatman #2) and balsa wood (Ochroma lagopus Swartz) slices (2.3 cm×4.0 cm) were evaluated. Seven concentrations (0, 1, 10, 50, 100, 500, and 1000 mg/l) were prepared in 100 ml ethanol. Six filter papers and six wood slices were soaked in each concentration for 4 h; control filter papers and wood slices were soaked only in ethanol. After treatment, the food sources were kept overnight at ambient conditions for solvent evaporation. Eighty-four plastic containers (5.5 cm diameter×3.7 cm height) were provided with 22 g of wetted sand (20 g sand (fine blasting sand #4, Cement Products Inc., Baton Rouge, La.) mixed with 2 ml DDH2O). Then either a filter paper or a wood slice was separately placed to fit on the surface of the wetted sand and wetted with DDH2O (250 μl). Into each container, fifty workers and 20 soldiers were placed on the surface of the filter paper or wood slice. For each concentration and food sourse, three replicates received termites from colony C, and three replicates received termites from colony WB. The containers were covered and incubated for 10 days at 27.4° C. and 70% RH. Containers were monitored everytwo days to ensure suitable moisture. On days 1, 5 and 10, the number of living workers and soldiers were counted. An average percent survival was calculated for each treatment. (See Tables 2 and 3).

C. formosanus workers = experiment: Repellency, choice of treated and untreated filter paper in three-chambered containers; format: in vivo, Coptotermes formosanus; conditions: for concentration of strong repellency and significant reduction in feeding activity: alternative food choice, 15 days
Description: Thirty-five transparent plastic containers (17.7 cm×8.0 cm×4.0 cm), Pioneer Packaging Co., North Dixon, Ky.), each with three chambers (8.0 cm×5.75 cm×4.0 cm), were used. An opening (3.5 cm×0.3 cm) was made at the bottom of each of the two inner walls, connecting the three chambers and allowing termites to move between the chambers. For each container, filter papers (Whatman #2, 5.5 cm diameter) were placed in the two lateral side chambers. For each treatment, five replicates (five containers) were used; for each replicate, one side chamber was marked “treated” and the other side chamber marked “untreated.”
A stock solution of 2′-acetonaphthone was prepared by dissolving 0.952 mg (AI) in 5 ml ethanol (190.4 mg/l). One-half of this solution was used to apply 500 μl to filter paper placed in the “treated” chamber to test the highest concentration of 2′-acetonaphthone, 4.0 μg/cm^2. The remaining volume, 2.5 ml, was diluted by adding an equal volume of ethanol. One-half of this new solution was used to add 500 μl to each of 5 filter papers in a “treated” chamber to achieve a concentration of 2.0 μg/cm^2. This dilution and application step was repeated four more times to make four additional concentrations equivalent to 1.0, 0.50, 0.250 and 0.125 μg/cm^2. Filter papers placed in the “untreated” chambers were left untreated. Five containers served as replicates for each tested concentration. Five containers served as controls, in which filter paper in the “treated” chamber received 500 μl ethanol, and that in the “untreated” chamber was left untreated.
Containers were kept at ambient conditons overnight for ethanol evaporation, and then all filter papers were weighed. In the middle chamber of all containers, 55 g wetted sand (50 g sand mixed with 5 ml DDH2O) was added, then packed and leveled to allow for clear visualization of tunnels along the bottom of the containers. Treated and untreated filter papers were wetted with 250 μl DDH2O. Then 100 workers and 5 soldiers from colony E were released onto the surface of the sand in the middle chamber.
The containers were covered and incubated for 12 days at 26.6° C. and 70% RH, and checked every 2 days for moisture content. The number of termites in the two lateral chambers was recorded daily for 3 days. On day 12, the bottom of each container was scanned (ScanJet 4c, Hewlett-Packard, Palo Alto, Calif.) and the images printed to measure and calculate the areas of tunnels. The experiment was ended on day 12, and the number of living termites in each container counted. The treated and untreated filter papers were gently cleaned using deionized water and a small brush to remove all debris. Filter papers were then oven dried at 60° C. for 3 h, and re-weighed to calculate food consumption.
A second trial was conducted with higher concentrations of 2′-acetonaphthone (5 to 40 μ/cm^2) using the above technique with some modifications. A stock solution (1900 mg/l) was prepared by dissolving 0.038 g (AI) 2′-acetonaphthone in 20 ml ethanol. Dilutions were made by taking 6.0, 4.5, 3.0, 1.5, and 0.75 ml from the original stock, and adjusting the volume of each to 6.0 ml with ethanol to yield the following concentrations: 1900.0, 1425.0, 950.0, 475.0, 237.5 mg/l, respectively. For each concentration, ten containers were used, with the filter paper in the “treated” chamber coated with 500 μl of the tested concentration. Filter papers placed in the “untreated” chamber were left untreated. For controls, ten containers were similarly handled except that the filter paper in the “treated” chamber was coated with 500 μl ethanol. The solvent was allowed to evaporate overnight at ambient conditions. The final concentrations of 2′-acetonaphthone on the filter papers were 5, 10, 20, 30, and 40 μg/cm^2.
The ten containers for each concentration were equally divided into two equal sub-groups. […]

[2] = Longevity and volatility of the eleven chemicals; format: physicochemical; conditions: among the eleven chemicals tested

longevity [2]: highest longevity
volatility [2]: lowest volatility
SMILES: CC(=O)c1ccc2ccccc2c1 [2′-acetonaphthone]
Percent survival ([1]; wood slices 1 mg/l, Day 1, Soldier): 93.33 ± 1.67 a %
Percent survival ([1]; wood slices 1 mg/l, Day 1, Worker): 85.0 ± 5.29 a %
Percent survival ([1]; wood slices 1 mg/l, Day 5, Soldier): 60.0 ± 13.54 a %
Percent survival ([1]; wood slices 1 mg/l, Day 5, Worker): 55.33 ± 12.87 a %
Percent survival ([1]; wood slices 1 mg/l, Day 10, Soldier): 47.50 ± 11.61 a %
Percent survival ([1]; wood slices 1 mg/l, Day 10, Worker): 52.67 ± 12.55 a %
Percent survival ([1]; wood slices 10 mg/l, Day 1, Soldier): 86.67 ± 4.41 a %
Percent survival ([1]; wood slices 10 mg/l, Day 1, Worker): 83.33 ± 5.03 a %
Percent survival ([1]; wood slices 10 mg/l, Day 5, Soldier): 54.17 ± 11.14 a %
Percent survival ([1]; wood slices 10 mg/l, Day 5, Worker): 63.67 ± 11.13 a %
Percent survival ([1]; wood slices 10 mg/l, Day 10, Soldier): 46.67 ± 12.36 a %
Percent survival ([1]; wood slices 10 mg/l, Day 10, Worker): 50.67 ± 8.79 a %
Percent survival ([1]; wood slices 50 mg/l, Day 1, Soldier): 85.0 ± 5.0 a %
Percent survival ([1]; wood slices 50 mg/l, Day 1, Worker): 86.67 ± 5.26 a %
Percent survival ([1]; wood slices 50 mg/l, Day 5, Soldier): 48.33 ± 10.38 a %
Percent survival ([1]; wood slices 50 mg/l, Day 5, Worker): 65.0 ± 13.51 a %
Percent survival ([1]; wood slices 50 mg/l, Day 10, Soldier): 39.17 ± 8.41 a %
Percent survival ([1]; wood slices 50 mg/l, Day 10, Worker): 49.67 ± 10.23 a %
Percent survival ([1]; wood slices 100 mg/l, Day 1, Soldier): 90.0 ± 2.89 a %
Percent survival ([1]; wood slices 100 mg/l, Day 1, Worker): 88.67 ± 3.33 a %
Percent survival ([1]; wood slices 100 mg/l, Day 5, Soldier): 55.83 ± 11.94 a %
Percent survival ([1]; wood slices 100 mg/l, Day 5, Worker): 56.67 ± 12.15 a %
Percent survival ([1]; wood slices 100 mg/l, Day 10, Soldier): 45.0 ± 9.58 a %
Percent survival ([1]; wood slices 100 mg/l, Day 10, Worker): 47.67 ± 10.97 a %
Percent survival ([1]; wood slices 500 mg/l, Day 1, Soldier): 80.83 ± 10.44 a %
Percent survival ([1]; wood slices 500 mg/l, Day 1, Worker): 84.67 ± 2.41 a %
Percent survival ([1]; wood slices 500 mg/l, Day 5, Soldier): 17.50 ± 7.61 b %
Percent survival ([1]; wood slices 500 mg/l, Day 5, Worker): 54.33 ± 8.01 a %
Percent survival ([1]; wood slices 500 mg/l, Day 10, Soldier): 4.17 ± 2.38 b %
Percent survival ([1]; wood slices 500 mg/l, Day 10, Worker): 30.67 ± 9.18 a %
Percent survival ([1]; wood slices 1000 mg/l, Day 1, Soldier): 84.17 ± 7.24 a %
Percent survival ([1]; wood slices 1000 mg/l, Day 1, Worker): 86.67 ± 3.53 a %
Percent survival ([1]; wood slices 1000 mg/l, Day 5, Soldier): 2.50 ± 2.49 b %
Percent survival ([1]; wood slices 1000 mg/l, Day 5, Worker): 13.0 ± 9.85 b %
Percent survival ([1]; wood slices 1000 mg/l, Day 10, Soldier): 0.0 ± 0.0 b %
Percent survival ([1]; wood slices 1000 mg/l, Day 10, Worker): 5.67 ± 4.27 b %
concentration of strong repellency and significant reduction in feeding activity (C. formosanus workers): ≥ 20 μg/cm^2
concentration of strong repellency and significant reduction in feeding activity (C. formosanus workers; listed as 2′-Acetonaphthone): ≥ 20.0 μg/cm^2
concentration of strong repellency and significant reduction in feeding activity (C. formosanus workers; listed as 2′-aceetonaphthone): ≥ 20.0 μg/cm^2
concentration of strong repellency and significant reduction in feeding activity (C. formosanus workers; listed as 2′-acetonapththone): ≥ 20 μg/cm^2
Survival rates after 15 days exposure (C. formosanus workers; concentrations ≧20 μg/cm^2, control 63.0%, difference not significant): 45.0-51.2%
concentration with significant differences in termite distribution between the chambers (C. formosanus workers; day 8): ≥ 5.0 μg/cm^2
concentration at which repellent (C. formosanus workers; untreated food source available): 5 μg/cm^2 filter paper
concentration with significantly more termites in the untreated chamber than in the treated chamber (C. formosanus workers; within the first 3 days): ≥ 10.0 μg/cm^2
